Results: paper PMC2806265, “Divergence of allosteric effects of rapacuronium on binding and function of muscarinic receptors” (BMC Pharmacology, 2009)
pEC50, pKd: −log10 of the molar value. Marks after values point to notes of the source that are not given here.

Experiments:
M4 muscarinic receptor [1] = biological target: T1, M4 muscarinic receptor (Homo sapiens, UniProt P08173); test: Effect of rapacuronium on 1 nM [3H]NMS binding; set-up: host or cells: CHO cells, stably transfected; membranes
T1 sequence (P08173 1-479): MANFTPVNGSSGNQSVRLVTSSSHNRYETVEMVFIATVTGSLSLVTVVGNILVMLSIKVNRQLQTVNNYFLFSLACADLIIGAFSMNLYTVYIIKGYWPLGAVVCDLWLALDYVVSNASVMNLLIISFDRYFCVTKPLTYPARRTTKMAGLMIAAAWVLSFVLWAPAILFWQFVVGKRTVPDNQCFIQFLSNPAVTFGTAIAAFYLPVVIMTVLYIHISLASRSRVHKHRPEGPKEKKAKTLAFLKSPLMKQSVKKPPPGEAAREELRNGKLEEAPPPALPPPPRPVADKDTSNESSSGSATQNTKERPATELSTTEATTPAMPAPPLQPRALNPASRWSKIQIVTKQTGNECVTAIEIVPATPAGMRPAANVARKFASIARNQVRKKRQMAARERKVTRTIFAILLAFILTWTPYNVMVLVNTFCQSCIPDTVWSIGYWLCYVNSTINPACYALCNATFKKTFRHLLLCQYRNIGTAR
Source text: (§1) Cooperativity factor greater than 1 denotes negative cooperativity and less than 1 positive cooperativity. Due to its log-normal error distribution factors of cooperativity are expressed as negative logarithms (pα) through the manuscript so negative values denotes negative cooperativity and positive value denotes positive cooperativity.

M5 muscarinic receptor [2] = biological target: T2, M5 muscarinic receptor (Homo sapiens, UniProt P08912); test: Effect of rapacuronium on 1 nM [3H]NMS binding; set-up: host or cells: CHO cells, stably transfected; membranes
T2 sequence (P08912 1-532): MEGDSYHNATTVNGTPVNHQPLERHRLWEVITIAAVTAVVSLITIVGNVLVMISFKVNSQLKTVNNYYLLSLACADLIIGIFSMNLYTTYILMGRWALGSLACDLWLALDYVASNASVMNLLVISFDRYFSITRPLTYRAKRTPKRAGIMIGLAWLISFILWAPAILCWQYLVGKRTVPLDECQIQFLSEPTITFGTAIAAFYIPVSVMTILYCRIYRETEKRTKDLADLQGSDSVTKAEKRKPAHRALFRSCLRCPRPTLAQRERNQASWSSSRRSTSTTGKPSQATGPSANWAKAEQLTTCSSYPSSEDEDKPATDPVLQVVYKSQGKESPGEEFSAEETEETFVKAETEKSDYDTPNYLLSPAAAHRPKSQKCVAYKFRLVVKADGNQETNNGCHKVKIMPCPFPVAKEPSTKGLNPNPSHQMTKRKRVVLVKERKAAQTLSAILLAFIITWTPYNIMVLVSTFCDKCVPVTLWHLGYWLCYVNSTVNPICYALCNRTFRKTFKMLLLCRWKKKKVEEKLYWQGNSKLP
Source text: as §1

M3 muscarinic receptor [3] = biological target: T3, M3 muscarinic receptor (Homo sapiens, UniProt P20309); test: Effect of rapacuronium on high-affinity 20 nM [3H]ACh binding
T3 construct: host or cells: CHO cells, stably transfected; membranes
T3 sequence (P20309 whole entry): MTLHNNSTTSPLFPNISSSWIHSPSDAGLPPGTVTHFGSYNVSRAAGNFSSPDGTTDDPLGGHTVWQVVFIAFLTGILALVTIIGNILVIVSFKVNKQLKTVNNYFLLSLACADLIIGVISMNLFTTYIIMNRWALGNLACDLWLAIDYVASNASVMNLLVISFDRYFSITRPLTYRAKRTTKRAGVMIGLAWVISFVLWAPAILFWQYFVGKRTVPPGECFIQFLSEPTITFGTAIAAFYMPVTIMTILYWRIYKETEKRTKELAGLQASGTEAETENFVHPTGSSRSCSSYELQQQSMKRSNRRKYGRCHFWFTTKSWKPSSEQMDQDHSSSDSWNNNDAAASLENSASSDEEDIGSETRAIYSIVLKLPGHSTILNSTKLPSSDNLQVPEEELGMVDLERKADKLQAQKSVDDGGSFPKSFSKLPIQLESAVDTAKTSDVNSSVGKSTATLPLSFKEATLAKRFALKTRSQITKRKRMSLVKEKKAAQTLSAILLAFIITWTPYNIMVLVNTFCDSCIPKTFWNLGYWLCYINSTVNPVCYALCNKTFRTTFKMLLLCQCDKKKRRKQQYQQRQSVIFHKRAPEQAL
Source text: as §1

M1 muscarinic receptor [4] = biological target: T4, M1 muscarinic receptor (Homo sapiens, UniProt P11229); test: as above
T4 construct: host or cells: CHO cells, stably transfected; membrane preparation
T4 sequence (P11229 1-460): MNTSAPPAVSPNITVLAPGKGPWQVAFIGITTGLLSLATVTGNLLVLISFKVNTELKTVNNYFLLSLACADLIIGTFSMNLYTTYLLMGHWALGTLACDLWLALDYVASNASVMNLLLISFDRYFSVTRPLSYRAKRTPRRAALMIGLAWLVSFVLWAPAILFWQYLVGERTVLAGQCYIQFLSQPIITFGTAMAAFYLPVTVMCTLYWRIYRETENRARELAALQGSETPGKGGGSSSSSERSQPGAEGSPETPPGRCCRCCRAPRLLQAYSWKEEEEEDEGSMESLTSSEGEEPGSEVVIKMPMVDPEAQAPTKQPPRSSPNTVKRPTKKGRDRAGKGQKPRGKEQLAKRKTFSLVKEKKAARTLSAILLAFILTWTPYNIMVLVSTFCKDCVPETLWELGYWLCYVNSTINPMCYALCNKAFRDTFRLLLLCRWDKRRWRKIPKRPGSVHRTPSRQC
Source text: as §1

M2 muscarinic receptor = biological target: T5, M2 muscarinic receptor (Homo sapiens, UniProt P08172); test: Effect of rapacuronium on low-affinity ACh binding ([3H]NMS + GTPγS + ACh); set-up: host or cells: CHO cells, stably transfected; membrane preparation
T5 sequence (P08172 1-466): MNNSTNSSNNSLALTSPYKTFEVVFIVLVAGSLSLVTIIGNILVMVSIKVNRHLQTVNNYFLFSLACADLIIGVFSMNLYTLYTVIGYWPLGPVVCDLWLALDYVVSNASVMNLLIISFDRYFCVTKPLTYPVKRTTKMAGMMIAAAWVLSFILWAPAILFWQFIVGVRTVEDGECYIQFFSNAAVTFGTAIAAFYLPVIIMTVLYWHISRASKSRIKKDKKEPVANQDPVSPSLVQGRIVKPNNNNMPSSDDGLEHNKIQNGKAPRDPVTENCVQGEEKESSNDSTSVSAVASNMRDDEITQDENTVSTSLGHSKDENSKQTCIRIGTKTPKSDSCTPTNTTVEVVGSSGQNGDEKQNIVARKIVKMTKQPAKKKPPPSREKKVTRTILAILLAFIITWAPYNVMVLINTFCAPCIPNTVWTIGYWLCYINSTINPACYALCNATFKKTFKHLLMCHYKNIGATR
Source text: (§2) Data are expressed as percent of specific binding in the absence of rapacuronium. […] Data are means ± SE from 3 independent experiments performed in quadruplicates. Curves are fits of Eq. 3 (circles) and Eq. 4 (squares and triangles) to data prior to normalization.

M5 muscarinic receptor [5] = biological target: T2, M5 muscarinic receptor; test: [3H]NMS dissociation
Source text: y, radioligand binding at time x normalized to binding at time 0; koff1 and koff2, dissociation rate constants; f2, fraction of binding site with dissociation rate constant koff2. When both Eq. 7a and 7b were fitted to data the better fit was chosen based on sum of squares F-test and runs test.

M4 muscarinic receptor [6] = biological target: T1, M4 muscarinic receptor; test: [35S]GTPγS binding to membranes; type: biochemical; set-up: host or cells: CHO cells, stably transfected; membranes; conditions: for EMAX of ACh on [^35S]GTPγS binding: fold of basal
Procedure: For determination of [^35S]GTPγS binding to G-proteins in membranes a final concentration of 200 pM (M1, M3 and M5 receptors) or 500 pM (M2 and M4 receptors) of [^35S]GTPγS was used. Incubation medium was supplemented with 5 μM (M1, M3 and M5 receptors) or 50 μM (M2 and M4 receptors) GDP. […] Incubation with [^35S]GTPγS was carried out for 20 min and free ligand was removed by filtration as described above. Filtration and washing with ice-cold water lasted for 9 s (wash-aspirate button time).

M3 muscarinic receptor [7] = biological target: T3, M3 muscarinic receptor; test: Effect of rapacuronium on low-affinity ACh binding ([3H]NMS + GTPγS + ACh)
Source text: as §2

M1 muscarinic receptor [8] = biological target: T4, M1 muscarinic receptor; test: as above
Source text: as §2

[9] = read-out: pKA of rapacuronium (converted)
[10] = M3, negative value = negative cooperativity
[11] = M1, negative value = negative cooperativity

Structure (SMILES): C=CC[N+]1([C@H]2C[C@H]3[C@@H]4CC[C@H]5C[C@H](OC(C)=O)[C@@H](N6CCCCC6)C[C@]5(C)[C@H]4CC[C@]3(C)[C@H]2OC(=O)CC)CCCCC1 [rapacuronium]
- pα, cooperativity with [^3H]NMS (M4 muscarinic receptor [1]; M4, negative value = negative cooperativity): -1.40 ± 0.04
- Kd (M4 muscarinic receptor [1]; [9]): 3.8 µM
- decrease in affinity of [^3H]NMS (cooperativity) (M5 muscarinic receptor [2]; M5): 35 fold
- pα, cooperativity with [^3H]NMS (M5 muscarinic receptor [2]; M5, negative value = negative cooperativity): -1.54 ± 0.05
- Kd (M5 muscarinic receptor [2]; [9]): 10.7 µM
- pα, cooperativity with [^3H]ACh high affinity binding (M3 muscarinic receptor [3]; [10]): -1.26 ± 0.05
- Kd (M3 muscarinic receptor [3]; [9]): 15.8 µM
- pα, cooperativity with [^3H]ACh high affinity binding (M1 muscarinic receptor [4]; [11]): -1.30 ± 0.07
- Kd (M1 muscarinic receptor [4]; [9]): 4.27 µM
- pβ, cooperativity with ACh low affinity binding (M2 muscarinic receptor; M2, negative value = negative cooperativity): -1.52 ± 0.06
- Kd (M2 muscarinic receptor; [9]): 2.75 µM
- decrease in rate of [^3H]NMS dissociation (M5 muscarinic receptor [5]; 100 μM rapacuronium): 40%
- koff1 of [^3H]NMS dissociation (M5 muscarinic receptor [5]; + 100 μM rapacuronium, monophasic): 0.0078 ± 0.0004* min^-1
- pEC50 (M4 muscarinic receptor [6]): 4.44
- EMAX of ACh on [^35S]GTPγS binding (M4 muscarinic receptor [6]; M4, + 0.1 μM rapacuronium): 2.95 ± 0.11
- EMAX of ACh on [^35S]GTPγS binding (M4 muscarinic receptor [6]; M4, + 1 μM rapacuronium): 2.80 ± 0.12
- EMAX of ACh on [^35S]GTPγS binding (M4 muscarinic receptor [6]; M4, + 10 μM rapacuronium): 2.32 ± 0.16
- EMAX of rapacuronium on [^35S]GTPγS binding (M4 muscarinic receptor [6]; M4, rapacuronium alone, normalized to absence of rapacuronium): 0.86 ± 0.06
- decrease in ACh low-affinity binding (cooperativity) (M3 muscarinic receptor [7]; M3): 16 fold
- pβ, cooperativity with ACh low affinity binding (M3 muscarinic receptor [7]; [10]): -1.20 ± 0.07
- Kd (M3 muscarinic receptor [7]; [9]): 17 µM
- pKd (M1 muscarinic receptor [8]): 5.33
- pβ, cooperativity with ACh low affinity binding (M1 muscarinic receptor [8]; [11]): -1.32 ± 0.06
